PubChem BioAssay (NCI)
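Five compound concentrations were applied to cells in 96-well plates for 48 hours; endpoints were derived by simple linear interpolation of the resulting dose-response curve. TGI denotes the concentration required for complete inhibition of growth.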

Columns and labels:
Experiment in all cases: NCI anticancer screen, dose series, 48 h
[1] = tested on: UACC-62 melanoma
[2] = tested on: HOP-92 NSCLC
[3] = tested on: SK-OV-3 ovarian
[4] = tested on: PC-3 prostate
[5] = tested on: HL-60(TB) leukemia
[6] = tested on: SR leukemia
[7] = tested on: SK-MEL-5 melanoma
[8] = tested on: DU-145 prostate
[9] = tested on: OVCAR-4 ovarian
[10] = tested on: UO-31 renal
[11] = tested on: HT29 colon
[12] = tested on: IGROV1 ovarian
[13] = tested on: 786-0 renal
[14] = tested on: MDA-MB-231 breast
[15] = tested on: SF-295 CNS
[16] = tested on: SN12C renal
[17] = tested on: ACHN renal
[18] = tested on: MDA-N
[19] = tested on: HCT-15 colon
[20] = tested on: SF-539 CNS
[21] = tested on: U251 CNS
[22] = tested on: RXF 393 renal
[23] = tested on: MCF7 breast
[24] = tested on: HCT-116 colon
[25] = tested on: OVCAR-8 ovarian
[26] = tested on: MDA-MB-435
[27] = tested on: SK-MEL-28 melanoma
[28] = tested on: HCC-2998 colon
[29] = tested on: EKVX NSCLC
[30] = tested on: KM12 colon
[31] = tested on: NCI-H522 lung
[32] = tested on: NCI-H460 lung
[33] = tested on: NCI-H23 lung
[34] = tested on: T-47D breast
[35] = tested on: CCRF-CEM leukemia
[36] = tested on: OVCAR-3 ovarian
[37] = tested on: CAKI-1 renal
[38] = tested on: M14 melanoma
[39] = tested on: SNB-75 CNS
[40] = tested on: TK-10 renal
[41] = tested on: SW-620 colon
[42] = tested on: K-562 leukemia
[43] = tested on: SF-268 CNS
[44] = tested on: LOX IMVI melanoma
[45] = tested on: NCI-H226 lung
[46] = tested on: SK-MEL-2 melanoma
[47] = tested on: COLO 205 colon
[48] = tested on: OVCAR-5 ovarian
[49] = tested on: NCI/ADR-RES ovarian
[50] = tested on: MALME-3M melanoma
[51] = tested on: HOP-62 NSCLC
[52] = tested on: SNB-19 CNS
[53] = tested on: A498 renal
[54] = tested on: MOLT-4 leukemia
[55] = tested on: A549 NSCLC
[56] = tested on: UACC-257 melanoma
[57] = tested on: BT-549 breast
[58] = tested on: RPMI-8226 leukemia

c1ccc(P2c3ccccc3Nc3ccccc32)cc1
TGI [1]: > 100 µM
TGI [2]: 97.4 µM
TGI [3]: > 100 µM
TGI [4]: 87.1 µM
TGI [5]: 55.8 µM
TGI [6]: 49.4 µM
TGI [7]: 82.5 µM
TGI [8]: > 100 µM
TGI [9]: > 100 µM
TGI [10]: > 100 µM
TGI [11]: > 100 µM
TGI [12]: > 100 µM
TGI [13]: > 100 µM
TGI [14]: > 100 µM
TGI [15]: > 100 µM
TGI [16]: > 100 µM
TGI [17]: > 100 µM
TGI [18]: > 100 µM
TGI [19]: > 100 µM
TGI [20]: > 100 µM
TGI [21]: > 100 µM
TGI [22]: > 100 µM
TGI [23]: > 100 µM
TGI [24]: > 100 µM
TGI [25]: > 100 µM
TGI [26]: > 100 µM
TGI [27]: > 100 µM
TGI [28]: > 100 µM
TGI [29]: > 100 µM
TGI [30]: > 100 µM
TGI [31]: > 100 µM
TGI [32]: > 100 µM
TGI [33]: > 100 µM
TGI [34]: > 100 µM
TGI [35]: 72 µM
TGI [36]: 47.3 µM
TGI [37]: > 100 µM
TGI [38]: > 100 µM
TGI [39]: 71 µM
TGI [40]: > 100 µM
TGI [41]: > 100 µM
TGI [42]: > 100 µM
TGI [43]: > 100 µM
TGI [44]: > 100 µM
TGI [45]: > 100 µM
TGI [46]: > 100 µM
TGI [47]: > 100 µM
TGI [48]: > 100 µM
TGI [49]: > 100 µM
TGI [50]: > 100 µM
TGI [51]: > 100 µM
TGI [52]: > 100 µM
TGI [53]: 76.6 µM
TGI [54]: 58.7 µM
TGI [55]: > 100 µM
TGI [56]: > 100 µM

CCCCS/C(=C(/C#N)C(N)=O)c1cc2c([nH]1)CCCC2
TGI [1]: 22.8 µM
TGI [2]: 38.7 µM
TGI [3]: 93.8 µM
TGI [4]: 46.5 µM
TGI [5]: 11.6 µM
TGI [7]: 26.7 µM
TGI [57]: 27.8 µM
TGI [8]: 25.4 µM
TGI [9]: 36.1 µM
TGI [10]: 25.8 µM
TGI [11]: 15 µM
TGI [13]: 24 µM
TGI [14]: 30.3 µM
TGI [15]: 28.5 µM
TGI [16]: 43.1 µM
TGI [17]: 39.7 µM
TGI [18]: 18.3 µM
TGI [19]: 21.4 µM
TGI [20]: 30 µM
TGI [21]: 31.2 µM
TGI [22]: 38.6 µM
TGI [23]: 50.4 µM
TGI [24]: 23 µM
TGI [25]: 36.5 µM
TGI [26]: 11.9 µM
TGI [27]: 28.2 µM
TGI [28]: 26.7 µM
TGI [29]: 24.4 µM
TGI [30]: 23.5 µM
TGI [58]: 29.6 µM
TGI [32]: 48.3 µM
TGI [33]: 36.7 µM
TGI [35]: 48.9 µM
TGI [36]: 36.5 µM
TGI [37]: 29.5 µM
TGI [39]: 29.1 µM
TGI [40]: 29 µM
TGI [41]: 24.6 µM
TGI [42]: > 100 µM
TGI [43]: 26.7 µM
TGI [44]: 21.1 µM
TGI [45]: 34.7 µM
TGI [46]: 34.7 µM
TGI [47]: 27.9 µM
TGI [48]: > 100 µM
TGI [49]: 28.6 µM
TGI [50]: 23.8 µM
TGI [51]: 72 µM
TGI [52]: 34.4 µM
TGI [53]: 31.4 µM
TGI [54]: 38.6 µM
TGI [55]: > 100 µM
TGI [56]: 32.4 µM
